The source of these data is publication PMC5381194, “On-chip in vitro cell-network pre-clinical cardiac toxicity using spatiotemporal human cardiomyocyte measurement on a chip” (Scientific Reports, 2014).

Data set [1] has as its system human embryonic stem cell-derived cardiomyocyte cluster (hES-CMC). The conditions noted are these: for Arrest (%) / Fib-like (%): human, 10 min.
On the set-up of data set [2]: method as in references and pharmaceutical attachments. The settings on record: clinical report; effective therapeutic plasma concentration; ref references and pharmaceutical attachments; cited from earlier work.
The next data set addresses hERG (Homo sapiens, UniProt Q12809). Kind of data set: hERG assay: K+ current by patch clamp in hERG expressing CHO-K1 cells. The settings on record: pH 7.4. On the procedure:
Supplementary Explanation of Methods [in online]
Measurement of potassium (K+) current by patch clamp in hERG expressing CHO-K1 cells A patch clamp glass electrode was filled with internal solution (KCl: 130 mM, MgCl2: 1 mM, EGTA: 5 mM, MgATP: 5 mM, HEPES: 10 mM, pH 7.20). The electrode was attached to a patch clamp headstage holder and the tip of the electrode was brought into contact with the cell membrane with a micromanipulator under the microscope. Slight negative pressure from suction was created inside the electrode and the patch clamp system AXOPATCH 200B (Axon Instruments) and Clampex 9.2 was used to obtain a measured membrane resistance value (R-memb) greater than 20 megohms. The resting membrane potential was set at -80 mV just to wait to obtain R-memb greater than 1 gigaohms. Then to make whole-cell clamp mode, a strong suction was applied to rupture the cell membrane under the electrode. Cell capacitance and series resistance were compensated. The stimulation protocol (holding potential: -80 mV, depolarization pulse: +50 mV, for 2 s, repolarization pulse: -40 mV, for 2 s, pulse frequency:
0.067 Hz) was applied and the corresponding current was recorded. After the current waveform became stable, the application solutions were added cumulatively from the lowest concentration.
The cells were exposed to each concentration for 5 minutes and washed with Tyrode solution […]
pH 7.40) to observe the recovery after the exposure to the highest concentration. All experiments (n=3) were carried out at room temperature. The cells were perfused with Tyrode solution at the rate of 2.5 ml/min through the experiment as the background flow. The test compound was added to the cells directly via a pipette set nearby the cells at the rate of 350-400 µl/min.
Percentage change from pre-application values in tail peak current (% inhibition) was calculated […]
application/average of the consecutive 4 currents just before the start of the first application (the lowest one)] × 100. The dose levels were selected to describe the dose response curve. The maximum concentration was set to at least approximately 30~100 times its effective therapeutic plasma concentration in consideration of the solubility. […]
In general terms: The hERG channel carries a current that helps repolarise heart muscle cells.

Data set [3] relates to human embryonic stem cell-derived cardiomyocyte cluster (hES-CMC). As to the kind of experiment: On-chip MEA field potential recording of hCM clusters (temporal FPD and STVFPD). The settings on record: for Score (On-chip MEA system, VT/TdP risk): more than 1.9-fold of STVFPD is the border of high risk of VT/TdP; for FPD (ratio) / STVFPD (ratio): 10 μM (Ref. dose ca. 10^2 × CMAX), ratio against the control, mean ± S.E.

The conditions of data set [4]: clinical VT/TdP risk compiled from the literature; ref literature; cited from earlier work.
The subject of data set [5] is isolated Langendorff-perfused female rabbit heart. Kind of data set: MAPD measurement in isolated Langendorff-perfused female rabbit heart. The conditions noted are these: relative ratio against the control, mean. The source says: (§1) megohms, which was coupled to an Ag-AgCl bath electrode and connected to a microelectrode […]
(§2) amplifier (MEZ-8300, Nihon Koden). […]
(§3) computer system (WinCAPA1.6.6.Aui, Physio-Tech). The components of the action potential analyzed by the computer system are: resting membrane potential (RMP), action potential amplitude (APA), overshoot (OS), action potential duration at 30%, 50% and 90% of repolarization (APD30, APD50 and APD90, respectively) and maximum rate of rising phase (V max = dV/dt max). After an equilibration period for at least one hour, the test compound was added to the organ bath at increasing cumulative concentrations. The administration volume and rate was 20, 40, 140 µl/20 ml organ bath and 1 s/dose. Cardiac action potentials were recorded before and 30 minutes after the exposure of the test compound at each concentration.
The dose levels were selected to describe the dose response curve.
(§4) Monophasic action potential duration (MAPD) measurements in isolated Langendorff-perfused female rabbit heart
(§5) Female NZW rabbit were anesthetized by an intravenous injection of thiopental (30 mg/kg) and heparin (500 U/kg). Then the heart was quickly removed and its aorta was cannulated, the bundle of His was sectioned, for perfusion of the coronary artery according to the Langendorff method with constant pressure (initial perfusion pressure: 60-70 mmHg). The heart was perfused at […]

For data set [6], the system named is guinea pig right ventricular papillary muscle. As to the kind of experiment: APD assay: action potential recording in guinea pig right ventricular papillary muscle. The settings on record: relative ratio against the control, mean. On the procedure: After the current waveform
(n=3) were carried out at room temperature. The cells were perfused with Tyrode solution at the […]
lowest one)] × 100. […] The […]
plasma concentration in consideration of the solubility. […]
as §1, §2, §3, §4, §5
KCl: 4.7 mM, CaCl2: 2.5 mM, MgSO4: 1.2 mM, KH2PO4: 1.2 mM, NaHCO3: 25 mM, glucose:
Two electrocardiogram (ECG) […]
electrodes were held lightly against the epicardium, the positive one on the left ventricle, the […]

The mark [7] stands for this setting: hCM clusters, 10 μM, ratio of lethally abnormal events.

Structures are written as SMILES. Like-named read-outs stand apart in the source and are kept apart here.

Sequence of hERG (Q12809 whole entry): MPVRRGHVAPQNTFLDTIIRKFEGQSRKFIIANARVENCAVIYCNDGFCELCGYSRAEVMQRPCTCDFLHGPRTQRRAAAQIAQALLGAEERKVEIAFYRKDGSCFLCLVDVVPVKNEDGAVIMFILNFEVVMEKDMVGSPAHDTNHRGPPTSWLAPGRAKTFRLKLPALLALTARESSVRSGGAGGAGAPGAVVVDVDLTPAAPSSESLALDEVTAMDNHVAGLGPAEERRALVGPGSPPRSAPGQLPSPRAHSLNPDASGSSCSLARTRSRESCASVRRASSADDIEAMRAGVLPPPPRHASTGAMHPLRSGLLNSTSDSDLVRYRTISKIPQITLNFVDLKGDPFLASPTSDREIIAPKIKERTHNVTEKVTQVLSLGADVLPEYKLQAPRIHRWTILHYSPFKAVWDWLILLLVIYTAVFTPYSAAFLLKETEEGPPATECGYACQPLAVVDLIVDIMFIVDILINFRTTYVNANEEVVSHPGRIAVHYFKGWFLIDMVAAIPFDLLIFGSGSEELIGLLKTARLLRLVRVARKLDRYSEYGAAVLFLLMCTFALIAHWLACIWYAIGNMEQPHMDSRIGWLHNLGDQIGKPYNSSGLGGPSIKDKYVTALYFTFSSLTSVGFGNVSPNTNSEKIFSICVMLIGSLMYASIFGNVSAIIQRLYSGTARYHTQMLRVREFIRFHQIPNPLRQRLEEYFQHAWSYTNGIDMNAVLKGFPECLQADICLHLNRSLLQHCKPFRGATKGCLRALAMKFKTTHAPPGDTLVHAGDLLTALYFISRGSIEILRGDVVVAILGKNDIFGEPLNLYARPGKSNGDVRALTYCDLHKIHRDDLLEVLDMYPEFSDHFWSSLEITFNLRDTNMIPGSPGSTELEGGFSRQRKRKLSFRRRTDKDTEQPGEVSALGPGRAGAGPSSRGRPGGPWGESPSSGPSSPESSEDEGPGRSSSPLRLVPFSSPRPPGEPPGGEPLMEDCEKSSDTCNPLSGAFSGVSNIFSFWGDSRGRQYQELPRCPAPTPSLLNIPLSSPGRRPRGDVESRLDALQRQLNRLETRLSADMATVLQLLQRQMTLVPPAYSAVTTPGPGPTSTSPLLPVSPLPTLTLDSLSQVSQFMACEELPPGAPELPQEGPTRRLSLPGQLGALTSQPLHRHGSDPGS

As to `CC(C)NCC(O)c1ccc(NS(C)(=O)=O)cc1` (racemic) [DL-sotalol], the “Score (On-chip MEA system, VT/TdP risk)” value in data set [1] was “High”. In addition, in data set [1] (1000 µM), the “Arrest (%)” value came to 5% and the “Fib-like (%)” value is 0%. Moreover, in data set [2], the Cmax was 2500 nM. For the same compound, the inhibition at 5 min, 30 µM on hERG (CHO-K1 cells expressing hERG) is 19.2%.
Take `COc1ccc(CCN2CCC(Nc3nc4ccccc4n3Cc3ccc(F)cc3)CC2)cc1` [Astemizole]: the “Score (On-chip MEA system, VT/TdP risk)” value in data set [3] was “High”. In data set [1] (0.1 µM), the “Arrest (%)” value turned out to be 0% and the “Fib-like (%)” value is recorded as 14%. In data set [2], the Cmax is 2 nM. Also, the “VT/VF/TdP (Clinical report)” value in data set [4] is “(+)”.
Turning to `CC(C)COCC(CN(Cc1ccccc1)c1ccccc1)N1CCCC1` (centres unmarked) [Bepridil], in data set [3] (hCM clusters), the “FPD (ratio)” value is given as 1.21 ± 0.12 ratio and the “STVFPD (ratio)” value was determined as 4.74 ± 2.26 ratio. Besides, in data set [3], the “Score (On-chip MEA system, VT/TdP risk)” value is given as “High”. In data set [1] (10 µM), the “Arrest (%)” value was 5% and the “Fib-like (%)” value is recorded as 5%. Moreover, the “MAPD90 prolongation in Langendorff hearts (ratio)” value in data set [5] (10 μM) was 1.12 ratio. For the same compound, in data set [2], the Cmax was 300 nM. Also, the “VT/VF/TdP (Clinical report)” value in data set [4] was “(+)”. The compound further displayed an inhibition at 5 min, 0.3 µM against hERG (CHO-K1 cells expressing hERG) of 61.9%. Besides, the “APD90 prolongation in papillary musole (ratio)” value in data set [6] (10 μM) is 1.02 ratio.
In the case of `COc1cc(N)c(Cl)cc1C(=O)NC1CCN(CCCOc2ccc(F)cc2)CC1OC` (centres unmarked) [Cisapride], in data set [3] (hCM clusters), the “FPD (ratio)” value was 1.37 ± 0.07 ratio and the “STVFPD (ratio)” value is 3.82 ± 0.85 ratio. Moreover, the “Score (On-chip MEA system, VT/TdP risk)” value in data set [3] is given as “High”. Also, in data set [1] (10 µM), the “Arrest (%)” value is recorded as 0% and the “Fib-like (%)” value stood at 4%. Also, the “MAPD90 prolongation in Langendorff hearts (ratio)” value in data set [5] (1 μM) is on record as 1.37 ratio. Also, in data set [2], the Cmax was 180 nM. For the same compound, the “VT/VF/TdP (Clinical report)” value in data set [4] is “(+)”. The inhibition at 5 min, 1 µM against hERG (CHO-K1 cells expressing hERG) came to 90.6%. For the same compound, the “APD90 prolongation in papillary musole (ratio)” value in data set [6] (1 μM) is on record as 1.14 ratio.
As for `CN(C)CCCC1(c2ccc(F)cc2)OCc2cc(C#N)ccc21` (centres unmarked) [Citalopram], in data set [3] (hCM clusters), the “FPD (ratio)” value amounted to 0.86 ± 0.04 ratio and the “STVFPD (ratio)” value is on record as 2.75 ± 0.78 ratio. In addition, in data set [3], the “Score (On-chip MEA system, VT/TdP risk)” value is reported as “High”. In data set [1] (10 µM), the “Arrest (%)” value turned out to be 12% and the “Fib-like (%)” value is given as 0%. Further, the Cmax in data set [2] is 270 nM. For the same compound, the “VT/VF/TdP (Clinical report)” value in data set [4] is given as “(+)”. On hERG, this compound showed an inhibition at 10 µM of 83.5%. Besides, in data set [6] (10 μM), the “APD90 prolongation in papillary musole (ratio)” value came out at 0.95 ratio.
For the compound `COc1ccc([C@@H]2Sc3ccccc3N(CCN(C)C)C(=O)[C@@H]2OC(C)=O)cc1` [Diltiazem], the “Score (On-chip MEA system, VT/TdP risk)” value in data set [3] was “Low”. Also, in data set [1] (1 µM), the “Arrest (%)” value is recorded as 50% and the “Fib-like (%)” value is on record as 0%. The Cmax in data set [2] is 110 nM.
On to `CC(C)(C)c1ccc(C(=O)CCCN2CCC(OC(c3ccccc3)c3ccccc3)CC2)cc1` [Ebastine], for which the “Score (On-chip MEA system, VT/TdP risk)” value in data set [3] was “Low”. In addition, in data set [1] (1 µM), the “Arrest (%)” value is listed as 0% and the “Fib-like (%)” value worked out at 0%. Further, the Cmax in data set [2] was 160 nM.
In the case of `NC(N)=Nc1nc(CSCCC(N)=NS(N)(=O)=O)cs1` [Famotidine], the “Score (On-chip MEA system, VT/TdP risk)” value in data set [3] was “Low”. For the same compound, in data set [1] (10 µM), the “Arrest (%)” value was found to be 0% and the “Fib-like (%)” value came out at 0%. In addition, the Cmax in data set [2] was 190 nM.
As for `O=C(NCC1CCCCN1)c1cc(OCC(F)(F)F)ccc1OCC(F)(F)F` (centres unmarked) [Flecainide], the “Score (On-chip MEA system, VT/TdP risk)” value in data set [3] is recorded as “High”. In data set [1] (100 µM), the “Arrest (%)” value was 13% and the “Fib-like (%)” value was determined as 0%. Further, the Cmax in data set [2] is 430 nM. This compound also had an inhibition at 5 min, 10 µM against hERG (CHO-K1 cells expressing hERG) of 88.3%.
With `C[C@H]1COc2c(N3CCN(C)CC3)c(F)cc3c(=O)c(C(=O)O)cn1c23` [Levofloxacin], the “Score (On-chip MEA system, VT/TdP risk)” value in data set [3] is reported as “Low”. Moreover, in data set [1] (1000 µM), the “Arrest (%)” value stood at 40% and the “Fib-like (%)” value was 4%. Moreover, in data set [2], the Cmax was 22000 nM. Also, on hERG (CHO-K1 cells expressing hERG), the inhibition at 5 min, 300 µM worked out at 13.2%.
Regarding `COc1c(N2C[C@@H]3CCCN[C@@H]3C2)c(F)cc2c(=O)c(C(=O)O)cn(C3CC3)c12` [Moxifloxacin], in data set [1] (100 µM), the “Arrest (%)” value was determined as 0% and the “Fib-like (%)” value is 0%. In addition, the Cmax in data set [2] was 10000 nM.
Take `Fc1ccc([C@@H]2CCNC[C@H]2COc2ccc3c(c2)OCO3)cc1` [Paroxetin]: in data set [3] (hCM clusters), the “FPD (ratio)” value is reported as 1.30 ± 0.06 ratio and the “STVFPD (ratio)” value is reported as 2.27 ± 0.41 ratio. In data set [3] (setting [7]), the “Arrest (%)” value worked out at 13% and the “Fib-like (%)” value is on record as 0%. The “Score (On-chip MEA system, VT/TdP risk)” value in data set [3] is listed as “High”. The Cmax in data set [2] is 70 nM.
As to `CC(C)(C)c1ccc(C(O)CCCN2CCC(C(O)(c3ccccc3)c3ccccc3)CC2)cc1` (centres unmarked) [Terfenadine], in data set [3] (0.3 μM, even at 72 h), the “STVFPD in hCM clusters, long-term observation” value is reported as “no significant increase”. The “time at which FPD reached the risk level” value in data set [3] (0.3 μM, hCM clusters, long-term observation) was 24 h. In addition, in data set [3] (0.3 μM, observed 8 h after application), the “FPD in hCM clusters, long-term observation” value was “gradual increase”. Also, the “Score (On-chip MEA system, VT/TdP risk)” value in data set [3] is given as “High”. In data set [1] (10 µM), the “Arrest (%)” value came out at 21% and the “Fib-like (%)” value is recorded as 3%. For the same compound, in data set [2], the Cmax is 220 nM. Further, the “VT/VF/TdP (Clinical report)” value in data set [4] was “(+)”.
As to `CSc1ccc2c(c1)N(CCC1CCCCN1C)c1ccccc1S2` (centres unmarked) [Thioridazine], the “Score (On-chip MEA system, VT/TdP risk)” value in data set [3] is reported as “High”. Besides, in data set [1] (10 µM), the “Arrest (%)” value was determined as 0% and the “Fib-like (%)” value worked out at 0%. In data set [2], the Cmax is 1800 nM. Further, the “VT/VF/TdP (Clinical report)” value in data set [4] is “(+)”.

For orientation: inhibition means the drop in the measured response relative to a control, in per cent.
